From ChEMBL document CHEMBL4325871 (Eur J Med Chem, 2019)
The source made the active and inactive calls. No cut-off for these calls is given here.

Tests used:
[1] = biological target: Mitogen-activated protein kinase 12 (Homo sapiens) (UniProt P53778); assay: Inhibition of human p38gamma assessed as residual activity at 1 uM using MBP as substrate by [gamma-33P]-ATP assay relative to control
[2] = biological target: Tyrosine-protein kinase TXK (Homo sapiens) (UniProt P42681); assay: Inhibition of human TXK assessed as residual activity at 1 uM using EAIYAAPFAKKK as substrate by [gamma-33P]-ATP assay relative to control
[3] = biological target: RAC-gamma serine/threonine-protein kinase (Homo sapiens) (UniProt Q9Y243); assay: Inhibition of human AKT3 assessed as residual activity at 1 uM using KGSGSGRPRTSSFAEG as substrate by [gamma-33P]-ATP assay relative to control
[4] = biological target: CDK18/Cyclin Y (Homo sapiens) (UniProt Q07002+Q8ND76); assay: Inhibition of human CDK18/cyclin-Y assessed as residual activity at 1 uM using RB protein as substrate by [gamma-33P]-ATP assay relative to control; format: protein-complex assay
[5] = biological target: Mitogen-activated protein kinase kinase kinase 10 (Homo sapiens) (UniProt Q02779); assay: Inhibition of human MLK2 assessed as residual activity at 1 uM using MBP as substrate by [gamma-33P]-ATP assay relative to control
[6] = biological target: Serine/threonine-protein kinase N2 (Homo sapiens) (UniProt Q16513); assay: Inhibition of human PKN2 assessed as residual activity at 1 uM using KKLNRTLSVA as substrate by [gamma-33P]-ATP assay relative to control
[7] = biological target: Calcium/calmodulin-dependent protein kinase type II subunit alpha (Homo sapiens) (UniProt Q9UQM7); assay: Inhibition of human CAMK2A assessed as residual activity at 1 uM using KKALRRQETVDAL as substrate by [gamma-33P]-ATP assay relative to control
[8] = biological target: Tyrosine-protein kinase Lck (Homo sapiens) (UniProt P06239); assay: Inhibition of human LCK assessed as residual activity at 1 uM using poly[Glu:Tyr] (4:1) as substrate by [gamma-33P]-ATP assay relative to control
[9] = biological target: Serine/threonine-protein kinase/endoribonuclease IRE2 (Homo sapiens) (UniProt Q76MJ5); assay: Inhibition of human ERN2 assessed as residual activity at 1 uM using MBP as substrate by [gamma-33P]-ATP assay relative to control
[10] = biological target: Myosin light chain kinase (Homo sapiens) (UniProt Q32MK0); assay: Inhibition of human MYLK3 assessed as residual activity at 1 uM using KKRPQRRYSNVF as substrate by [gamma-33P]-ATP assay relative to control
[11] = biological target: Serine/threonine-protein kinase ULK3 (Homo sapiens) (UniProt Q6PHR2); assay: Inhibition of human ULK3 assessed as residual activity at 1 uM using MBP as substrate by [gamma-33P]-ATP assay relative to control
[12] = biological target: Macrophage-stimulating protein receptor (Homo sapiens) (UniProt Q04912); assay: Inhibition of human RON assessed as residual activity at 1 uM using KKSRGDYMTMQIG as substrate by [gamma-33P]-ATP assay relative to control
[13] = biological target: Serine/threonine-protein kinase Nek11 (Homo sapiens) (UniProt Q8NG66); assay: Inhibition of human NEK11 assessed as residual activity at 1 uM using MBP as substrate by [gamma-33P]-ATP assay relative to control
[14] = biological target: T1, Serine/threonine-protein kinase Chk1 (Homo sapiens) (UniProt O14757); assay: Inhibition of CHK1 phosphorylation at S317 residue in human HCT116 cells at 20 uM after 8 hrs by Western blot analysis; format: cell-based
T1 sequence (whole entry): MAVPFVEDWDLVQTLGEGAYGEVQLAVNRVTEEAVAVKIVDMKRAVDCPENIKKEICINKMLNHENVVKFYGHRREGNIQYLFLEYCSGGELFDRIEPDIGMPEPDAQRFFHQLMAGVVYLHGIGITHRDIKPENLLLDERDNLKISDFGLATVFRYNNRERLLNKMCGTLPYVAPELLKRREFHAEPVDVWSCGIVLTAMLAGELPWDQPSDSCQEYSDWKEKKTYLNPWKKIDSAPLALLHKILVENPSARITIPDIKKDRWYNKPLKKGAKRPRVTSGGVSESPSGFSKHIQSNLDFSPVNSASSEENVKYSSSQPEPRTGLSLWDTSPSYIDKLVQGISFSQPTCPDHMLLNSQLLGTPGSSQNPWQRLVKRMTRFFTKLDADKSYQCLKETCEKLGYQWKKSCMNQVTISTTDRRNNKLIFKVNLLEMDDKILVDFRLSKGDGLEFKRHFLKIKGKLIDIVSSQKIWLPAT

[15] = biological target: Serine/threonine-protein kinase PLK3 (Homo sapiens) (UniProt Q9H4B4); assay: Inhibition of human PLK3 assessed as residual activity at 1 uM using casein as substrate by [gamma-33P]-ATP assay relative to control
[16] = biological target: Protein-tyrosine kinase 6 (Homo sapiens) (UniProt Q13882); assay: Inhibition of human BRK assessed as residual activity at 1 uM using poly[Glu:Tyr](4:1) as substrate by [gamma-33P]-ATP assay relative to control
[17] = biological target: Mitogen-activated protein kinase 15 (Homo sapiens) (UniProt Q8TD08); assay: Inhibition of human ERK7 assessed as residual activity at 1 uM using MBP as substrate by [gamma-33P]-ATP assay relative to control
[18] = biological target: T1, Serine/threonine-protein kinase Chk1 (Homo sapiens); assay: Inhibition of CHK1 phosphorylation at S296 residue in human HCT116 cells at 20 uM after 8 hrs by Western blot analysis; format: cell-based
[19] = biological target: Casein kinase I isoform gamma-1 (Homo sapiens) (UniProt Q9HCP0); assay: Inhibition of human CK1gamma1 assessed as residual activity at 1 uM using KRRRAL[pS]VASLPGL as substrate by [gamma-33P]-ATP assay relative to control
[20] = biological target: Receptor-interacting serine/threonine-protein kinase 2 (Homo sapiens) (UniProt O43353); assay: Inhibition of human RIPK2 assessed as residual activity at 1 uM using MBP as substrate by [gamma-33P]-ATP assay relative to control
[21] = biological target: Tyrosine-protein kinase JAK3 (Homo sapiens) (UniProt P52333); assay: Inhibition of human JAK3 assessed as residual activity at 1 uM using poly[Glu:Tyr] (4:1) as substrate by [gamma-33P]-ATP assay relative to control
[22] = biological target: CDK6/cyclin D1 (Homo sapiens) (UniProt P24385+Q00534); assay: Inhibition of human CDK6/cyclin-D1 assessed as residual activity at 1 uM using RB protein as substrate by [gamma-33P]-ATP assay relative to control; format: protein-complex assay
[23] = biological target: High affinity nerve growth factor receptor (Homo sapiens) (UniProt P04629); assay: Inhibition of human TRKA assessed as residual activity at 1 uM using poly[Glu:Tyr] (4:1) as substrate by [gamma-33P]-ATP assay relative to control
[24] = biological target: Protein kinase C theta type (Homo sapiens) (UniProt Q04759); assay: Inhibition of human PKCtheta assessed as residual activity at 1 uM using Histone H1 as substrate by [gamma-33P]-ATP assay relative to control
Sequence of Protein kinase C theta type (Homo sapiens) (Q04759 whole entry, looked up): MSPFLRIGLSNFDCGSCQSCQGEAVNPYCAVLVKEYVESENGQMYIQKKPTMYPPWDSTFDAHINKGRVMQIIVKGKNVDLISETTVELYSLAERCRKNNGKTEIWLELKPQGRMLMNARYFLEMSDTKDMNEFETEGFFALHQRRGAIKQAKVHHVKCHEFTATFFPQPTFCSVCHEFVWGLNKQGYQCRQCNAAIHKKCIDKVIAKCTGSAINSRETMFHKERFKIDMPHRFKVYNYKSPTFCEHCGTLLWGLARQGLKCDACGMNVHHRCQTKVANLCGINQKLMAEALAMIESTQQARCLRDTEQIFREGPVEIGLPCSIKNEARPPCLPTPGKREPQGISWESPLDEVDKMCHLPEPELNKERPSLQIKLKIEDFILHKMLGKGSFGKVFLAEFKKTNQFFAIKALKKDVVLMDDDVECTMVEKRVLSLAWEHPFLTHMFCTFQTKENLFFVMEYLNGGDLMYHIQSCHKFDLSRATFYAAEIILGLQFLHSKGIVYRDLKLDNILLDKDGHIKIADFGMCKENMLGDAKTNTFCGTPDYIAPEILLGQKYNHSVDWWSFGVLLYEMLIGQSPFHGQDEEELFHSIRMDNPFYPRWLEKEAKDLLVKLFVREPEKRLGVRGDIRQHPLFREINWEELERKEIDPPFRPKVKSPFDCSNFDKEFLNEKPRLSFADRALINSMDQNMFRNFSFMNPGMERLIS

Sequence of Mitogen-activated protein kinase 15 (Homo sapiens) (Q8TD08 whole entry): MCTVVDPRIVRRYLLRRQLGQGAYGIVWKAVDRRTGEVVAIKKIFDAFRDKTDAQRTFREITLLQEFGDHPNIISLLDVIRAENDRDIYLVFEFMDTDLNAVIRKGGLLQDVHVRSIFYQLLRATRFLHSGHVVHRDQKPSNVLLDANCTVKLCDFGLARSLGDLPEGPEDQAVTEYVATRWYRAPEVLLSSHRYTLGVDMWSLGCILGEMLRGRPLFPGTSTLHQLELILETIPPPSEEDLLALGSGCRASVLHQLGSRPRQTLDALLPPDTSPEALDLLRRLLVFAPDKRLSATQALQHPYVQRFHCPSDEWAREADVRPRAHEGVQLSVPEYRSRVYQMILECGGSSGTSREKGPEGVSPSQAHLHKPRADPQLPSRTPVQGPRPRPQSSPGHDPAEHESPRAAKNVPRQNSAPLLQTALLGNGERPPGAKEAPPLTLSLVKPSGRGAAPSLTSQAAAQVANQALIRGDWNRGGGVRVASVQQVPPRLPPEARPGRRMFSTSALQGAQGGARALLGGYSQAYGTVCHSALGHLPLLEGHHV
Sequence of High affinity nerve growth factor receptor (Homo sapiens) (P04629 33-796 limits assumed): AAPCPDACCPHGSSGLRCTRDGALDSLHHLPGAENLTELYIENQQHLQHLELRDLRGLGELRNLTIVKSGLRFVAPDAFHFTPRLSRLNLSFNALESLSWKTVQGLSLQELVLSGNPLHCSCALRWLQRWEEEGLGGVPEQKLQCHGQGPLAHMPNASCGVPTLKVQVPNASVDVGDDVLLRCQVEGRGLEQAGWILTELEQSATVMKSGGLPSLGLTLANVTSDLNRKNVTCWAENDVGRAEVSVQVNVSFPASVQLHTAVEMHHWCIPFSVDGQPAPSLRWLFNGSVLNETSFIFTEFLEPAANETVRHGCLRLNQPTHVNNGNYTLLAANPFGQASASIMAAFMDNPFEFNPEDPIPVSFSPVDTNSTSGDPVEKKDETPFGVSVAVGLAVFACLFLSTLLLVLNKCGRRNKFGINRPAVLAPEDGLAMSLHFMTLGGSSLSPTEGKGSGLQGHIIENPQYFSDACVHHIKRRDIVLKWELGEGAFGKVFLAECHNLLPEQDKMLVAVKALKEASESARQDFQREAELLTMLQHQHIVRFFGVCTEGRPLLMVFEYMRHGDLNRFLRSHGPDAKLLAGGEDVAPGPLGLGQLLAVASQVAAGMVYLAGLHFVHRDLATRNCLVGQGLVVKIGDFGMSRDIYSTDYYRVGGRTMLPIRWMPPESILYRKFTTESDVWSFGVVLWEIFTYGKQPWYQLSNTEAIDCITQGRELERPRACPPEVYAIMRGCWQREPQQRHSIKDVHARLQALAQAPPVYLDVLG
Sequence of Serine/threonine-protein kinase PLK3 (Homo sapiens) (Q9H4B4 whole entry, looked up): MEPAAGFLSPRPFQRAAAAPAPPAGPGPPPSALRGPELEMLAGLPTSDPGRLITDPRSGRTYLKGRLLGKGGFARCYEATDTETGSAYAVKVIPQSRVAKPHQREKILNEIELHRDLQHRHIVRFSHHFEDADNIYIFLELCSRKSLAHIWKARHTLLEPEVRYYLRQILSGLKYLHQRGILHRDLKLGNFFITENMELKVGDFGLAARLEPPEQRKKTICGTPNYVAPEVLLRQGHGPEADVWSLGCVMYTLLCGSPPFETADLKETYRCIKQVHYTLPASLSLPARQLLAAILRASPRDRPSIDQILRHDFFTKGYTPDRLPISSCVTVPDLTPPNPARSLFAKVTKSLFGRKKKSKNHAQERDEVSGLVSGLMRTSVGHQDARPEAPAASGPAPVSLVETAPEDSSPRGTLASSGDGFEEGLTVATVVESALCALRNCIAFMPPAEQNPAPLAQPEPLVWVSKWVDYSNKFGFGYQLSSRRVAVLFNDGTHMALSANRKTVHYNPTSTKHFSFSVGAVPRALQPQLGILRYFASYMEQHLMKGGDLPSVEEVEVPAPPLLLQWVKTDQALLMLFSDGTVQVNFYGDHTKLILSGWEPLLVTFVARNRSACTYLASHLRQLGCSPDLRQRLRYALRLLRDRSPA
Sequence of Casein kinase I isoform gamma-1 (Homo sapiens) (Q9HCP0 whole entry, looked up, canonical isoform): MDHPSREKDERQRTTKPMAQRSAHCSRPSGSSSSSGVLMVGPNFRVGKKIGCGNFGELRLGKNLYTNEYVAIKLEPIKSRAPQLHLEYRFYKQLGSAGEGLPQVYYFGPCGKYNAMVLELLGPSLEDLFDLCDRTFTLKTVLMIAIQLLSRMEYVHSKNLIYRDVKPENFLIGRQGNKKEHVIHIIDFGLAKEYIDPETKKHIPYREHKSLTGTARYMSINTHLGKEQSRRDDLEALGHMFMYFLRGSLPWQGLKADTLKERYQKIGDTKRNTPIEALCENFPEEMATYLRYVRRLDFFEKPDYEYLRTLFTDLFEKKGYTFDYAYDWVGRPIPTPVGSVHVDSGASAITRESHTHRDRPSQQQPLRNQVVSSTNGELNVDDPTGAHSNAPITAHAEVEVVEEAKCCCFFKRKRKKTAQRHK
Sequence of Serine/threonine-protein kinase Nek11 (Homo sapiens) (Q8NG66 whole entry): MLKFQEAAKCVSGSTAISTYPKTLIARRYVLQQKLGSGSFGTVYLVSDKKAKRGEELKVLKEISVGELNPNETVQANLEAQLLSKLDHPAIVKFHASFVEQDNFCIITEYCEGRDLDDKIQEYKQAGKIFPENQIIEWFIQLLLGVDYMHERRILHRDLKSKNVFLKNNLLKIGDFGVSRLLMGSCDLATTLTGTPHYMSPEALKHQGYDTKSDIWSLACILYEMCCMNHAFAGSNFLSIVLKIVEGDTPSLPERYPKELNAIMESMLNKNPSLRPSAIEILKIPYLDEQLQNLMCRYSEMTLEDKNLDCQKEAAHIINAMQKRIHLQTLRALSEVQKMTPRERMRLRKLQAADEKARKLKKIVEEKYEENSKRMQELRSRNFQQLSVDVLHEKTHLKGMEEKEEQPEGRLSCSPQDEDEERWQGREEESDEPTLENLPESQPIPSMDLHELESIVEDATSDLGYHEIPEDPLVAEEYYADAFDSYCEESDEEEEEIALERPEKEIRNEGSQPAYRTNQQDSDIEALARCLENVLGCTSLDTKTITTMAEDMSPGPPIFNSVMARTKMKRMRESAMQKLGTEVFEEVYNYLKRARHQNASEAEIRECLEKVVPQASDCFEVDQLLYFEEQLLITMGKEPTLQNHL
Sequence of Protein-tyrosine kinase 6 (Homo sapiens) (Q13882 whole entry, looked up): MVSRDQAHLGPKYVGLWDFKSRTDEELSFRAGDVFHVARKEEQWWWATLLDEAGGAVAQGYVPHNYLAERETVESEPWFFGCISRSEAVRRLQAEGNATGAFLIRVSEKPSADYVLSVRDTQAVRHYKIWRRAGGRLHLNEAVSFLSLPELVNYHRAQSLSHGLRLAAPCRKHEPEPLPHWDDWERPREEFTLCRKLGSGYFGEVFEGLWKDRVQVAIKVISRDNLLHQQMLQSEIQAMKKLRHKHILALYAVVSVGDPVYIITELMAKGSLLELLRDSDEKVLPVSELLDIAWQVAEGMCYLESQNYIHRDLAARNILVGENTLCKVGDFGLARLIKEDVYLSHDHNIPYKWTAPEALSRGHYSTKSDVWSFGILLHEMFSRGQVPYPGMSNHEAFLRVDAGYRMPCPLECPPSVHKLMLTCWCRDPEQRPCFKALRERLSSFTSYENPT
Sequence of Mitogen-activated protein kinase 12 (Homo sapiens) (P53778 whole entry): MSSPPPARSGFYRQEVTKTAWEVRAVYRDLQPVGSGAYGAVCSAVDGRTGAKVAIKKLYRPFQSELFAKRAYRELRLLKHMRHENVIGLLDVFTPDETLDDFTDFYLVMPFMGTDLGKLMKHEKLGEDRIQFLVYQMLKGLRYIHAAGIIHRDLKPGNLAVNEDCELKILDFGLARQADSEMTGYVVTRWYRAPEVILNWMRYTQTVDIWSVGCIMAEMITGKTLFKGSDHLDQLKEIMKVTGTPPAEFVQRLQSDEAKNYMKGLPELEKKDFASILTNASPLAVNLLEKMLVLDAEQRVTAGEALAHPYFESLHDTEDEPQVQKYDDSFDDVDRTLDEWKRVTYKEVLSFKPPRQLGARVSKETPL
Sequence of Calcium/calmodulin-dependent protein kinase type II subunit alpha (Homo sapiens) (Q9UQM7 whole entry): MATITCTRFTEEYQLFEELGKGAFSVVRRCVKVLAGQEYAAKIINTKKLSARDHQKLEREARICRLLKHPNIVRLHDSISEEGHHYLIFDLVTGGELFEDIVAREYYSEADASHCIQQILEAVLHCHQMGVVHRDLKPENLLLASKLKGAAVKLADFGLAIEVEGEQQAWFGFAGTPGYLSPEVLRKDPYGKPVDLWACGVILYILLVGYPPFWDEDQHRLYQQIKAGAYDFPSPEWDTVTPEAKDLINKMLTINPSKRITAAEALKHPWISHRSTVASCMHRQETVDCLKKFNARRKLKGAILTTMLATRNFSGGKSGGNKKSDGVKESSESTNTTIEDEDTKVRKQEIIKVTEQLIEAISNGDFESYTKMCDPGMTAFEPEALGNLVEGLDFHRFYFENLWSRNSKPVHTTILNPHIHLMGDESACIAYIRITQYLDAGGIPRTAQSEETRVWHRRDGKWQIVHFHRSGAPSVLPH

## C(=C\c1ccccc1)/C[N+]12CN3CN(CN(C3)C1)C2
[1]
  Activity: 93.7 to 94.8%
[2]
  Activity: 93.5 to 93.8%
[3]
  Activity: 95.9 to 96%
[4]
  Activity: 92.5 to 93.7%
[5]
  Activity: 96 to 96.1%
[6]
  Activity: 95.9 to 108%
[7]
  Activity: 93.1 to 94.1%
[8]
  Activity: 94.2 to 95.5%
[9]
  Activity: 94.5 to 96.6%
[10]
  Activity: 92 to 96.4%
[11]
  Activity: 90.5 to 93.8%
[12]
  Activity: 93.3 to 94.8%
[13]
  Activity: 95 to 96.2%
[14]
  inhibition: inactive
[15]
  Activity: 96.3 to 96.8%
[16]
  Activity: 95.2 to 95.6%
[17]
  Activity: 95 to 96.7%
[18]
  inhibition: inactive

## ClC/C=C/C[N+]12CN3CN(CN(C3)C1)C2
[19]
  Activity: 94.4 to 96.5%
[20]
  Activity: 95.4 to 96.7%
[21]
  Activity: 94.2 to 96.6%
[22]
  Activity: 97.5 to 97.7%
[23]
  Activity: 94 to 94.8%
[24]
  Activity: 111 to 115%
